According to PMC8448819, “The Arabidopsis MIK2 receptor elicits immunity by sensing a conserved signature from phytocytokines and microbes” (Nature Communications, 2021):
No end group written: not given here.

Tests used:
[1] = tested on: mik2-1 and mik2-2 mutant seedlings; type: in vivo, Arabidopsis thaliana; conditions: in vivo
[2] = tested on: PEPR1^ECD-MIK2^TK/pepr1,2 transgenic seedlings; assay: Root growth assay, PEPR1^ECD-MIK2^TK/pepr1,2 seedlings; type: in vivo, Arabidopsis thaliana; conditions: PEPR1^ECD-MIK2^TK/pepr1,2 compared to WT
Source text: The BAK1 (AT4G33430), SERK4 (AT2G13790), BIK1 (AT2G39660), and MIK2 (AT4G08850) coding sequences (CDSs) were amplified by PCR from Col-0 cDNA using the primers containing BamHI at the 5′ end and StuI at the 3′ end. The PCR products were digested by BamHI and StuI, followed by ligation into the pHBT-FLAG or pHBT-HA vector to generate pHBT-35S::BAK1-FLAG, pHBT-35S::SERK4-FLAG, pHBT-35S::BIK1-HA, pHBT-35S::MIK2-HA, and pHBT-35S::MIK2-GFP constructs[24],[41],[62]. MIK2^ECD (residues 1–707) and BAK1^ECD (residues 1–220) were amplified by PCR from Col-0 cDNA and cloned into pFastBac-1 vector with a C-terminal 6× HIS tag[25],[62]. The fusion protein vectors carrying MIK2^ECD or BAK1^ECD were used for insect cell expression. To obtain the binary vector pCAMBIA1300-35S::RLK7, a 2907-bp RLK7 CDS was PCR-amplified from WT cDNA using gene-specific primers with KpnI and SalI at the 5′ and 3′ ends, respectively, followed by KpnI and SalI digestion and ligation into the pCAMBIA1300 vector. […]
Cold stratified seeds were surface-sterilized with 70% (v/v) ethanol for 5 min and were sown on ½MS plates with or without peptides at indicated concentrations. Ten-day-old seedlings grown on plates vertically in a growth chamber were photographed, and the root lengths of seedlings were measured using Image J (http://rsb.info.nih.gov/ij/).

[3] = In vitro protein cleavage assay and LC-MS/MS; type: biochemical, Arabidopsis thaliana
Protocol: Recombinant HIS-SCOOP12 proteins were expressed in E. coli BL21 strain with an isopropyl β-D-1-thiogalactopyranoside (IPTG)-inducible system and purified with Ni-NTA agarose (QIAGEN, #166048536) in buffer containing 50 mM Tris-HCl pH 7.5 and 300 mM NaCl. For in vitro protein cleavage assay, 5 μg of purified HIS-SCOOP12 proteins were incubated with 10 μL protein extracts isolated from 10-day-old Arabidopsis WT seedlings or protein extraction buffer (50 mM HEPES, pH 7.4, 10 mM EDTA, and 1× protease inhibitor cocktail, Sigma) following a published protocol[36] for 5 h at room temperature with rotation. […] The processed SCOOP12 bands were cut from SDS-PAGE for LC-MS/MS analysis.
The processed SCOOP12 bands were in-gel digested following a published protocol, except that digestion was conducted with Lys-C (Promega, Madison, WI, USA). The digested peptides were desalted using micro ZipTip mini-reverse phase (Millipore). In brief, after wetting (with 50% acetonitrile) and equilibrating a ZipTip (with 0.1% formic acid), the peptides were bound to C-18 material. A subsequent washing step with 0.1% formic acid was followed by a final elution with 60% acetonitrile and 0.1% formic acid. The samples were lyophilized to dryness using a labconco speedvac (Centrivap, Labconco Inc., USA). The resulting peptides were resuspended in 0.1% formic acid for mass spectrometric analysis. The mass spectrometry data acquisition was performed on an EASY-nLC 1200 ultraperformance liquid chromatography system (Thermo Scientific Inc., San Jose, CA) connected to an Orbitrap Q-Exactive HF instrument equipped with a nano-electrospray source (Thermo Scientific Inc., San Jose, CA)[67]. The peptide samples were loaded to a C18 trapping column (75 μm i.d. × 2 cm, Acclaim PepMap® 100 particles with 3 μm size and 100 Å pores) and then eluted using a C18 analytical column (75 μm i.d. × 25 cm, 2 μm particles with 100 Å pore size). […] All MS/MS samples were analyzed using Mascot Daemon (Matrix Science, London, UK; version 2.4.0). […]

[4] = biological target: T1, MIK2^ECD, extracellular LRR domain of MALE DISCOVERER 1-INTERACTING RECEPTOR-LIKE KINASE 2 (Arabidopsis thaliana, UniProt Q8VZG8 44-707); assay: SPR; conditions: both partners purified
T1 construct: also called MIK2^ECD-6×HIS
T1 sequence (looked up): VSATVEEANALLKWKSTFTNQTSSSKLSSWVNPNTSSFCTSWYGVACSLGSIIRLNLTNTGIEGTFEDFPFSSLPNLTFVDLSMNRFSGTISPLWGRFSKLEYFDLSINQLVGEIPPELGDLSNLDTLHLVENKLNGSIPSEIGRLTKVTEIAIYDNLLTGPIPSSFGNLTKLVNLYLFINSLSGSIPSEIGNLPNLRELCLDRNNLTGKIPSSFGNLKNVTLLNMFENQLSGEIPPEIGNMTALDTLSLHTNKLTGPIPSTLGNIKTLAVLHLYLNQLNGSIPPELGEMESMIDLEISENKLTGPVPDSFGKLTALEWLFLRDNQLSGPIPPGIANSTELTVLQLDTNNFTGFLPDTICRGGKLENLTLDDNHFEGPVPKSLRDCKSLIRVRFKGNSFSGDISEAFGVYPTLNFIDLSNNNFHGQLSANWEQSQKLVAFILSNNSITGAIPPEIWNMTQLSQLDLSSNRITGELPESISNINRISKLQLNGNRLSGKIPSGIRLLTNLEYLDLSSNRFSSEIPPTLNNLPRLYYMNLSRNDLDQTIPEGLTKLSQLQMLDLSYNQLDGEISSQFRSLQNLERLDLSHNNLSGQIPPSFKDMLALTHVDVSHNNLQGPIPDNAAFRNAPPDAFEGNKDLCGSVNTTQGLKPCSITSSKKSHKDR

[5] = biological target: T1, MIK2^ECD, extracellular LRR domain of …; assay: ITC; MicroCal ITC200, 25 °C, 200 mM HEPES pH 7.0, 100 mM NaCl; 600 µM peptide injected into 30 µM MIK2^ECD in the cell; conditions: both partners purified

## ATKVKAKQRGKEKVSSGRPGQHN [Pep1, plant endogenous peptide recognized by PEPR1/PEPR2]
[1]
  response of mik2-1 to Pep1: responded to the Pep1 treatment similarly to WT plants
[2]
  brown roots and darkened root-hypocotyl junctions: brown roots, and darkened root-hypocotyl junctions
  root growth retardation: severe root growth retardation

## HIS-SCOOP12: recombinant HIS-SCOOP12 proteins expressed in E. coli (LMGSGASGPVRSSQSSQAGGRFNDADPIAIDYGKY; also: His tag (not in given chain); UniProt B3H7I1 44-78, looked up)
[3]; 5 μg HIS-SCOOP12, seedling extract, 5 h, room temperature, pH 7.4
  proteolytic processing by Arabidopsis protein extracts: proteolytically processed upon incubation with Arabidopsis protein extracts
[3]; Nano-LC-MS/MS
  cleavage site: cleaved after arginine 43 (R^43)
[3]; Nano-LC-MS/MS, in-gel Lys-C digestion
  identified SCOOP12 fragment: from leucine 44 (L^44) to lysine 78 (Y^78)

B1: SCOOP12 peptide (SERINE-RICH ENDOGENOUS PEPTIDE 12) (peptide)
chain: PVRSSQSSQAGGR
modifications: Synthetic peptide, unlabelled in ITC/SPR; an N-terminal TAMRA version was used for in vivo binding. Exact limits are in Supplementary Data 4 (not shown). Limits taken as the commonly used 13-mer …
[4]
  Kd: 1.78 µM
[5]
  Kd: 3.18 µM
  stoichiometry N: ~1

B2: SCOOP12^SS/AA peptide (peptide)
chain: PVRSAQASQAGGR
modifications: Synthetic peptide. Exact limits are in Supplementary Data 4 (not shown); same conventional 13-mer as m1, with both SxS-motif serines changed to alanine.
[4]
  Kd: 3480 µM
